The text below walks through data of patent US10544140B2, “Pharmaceutical composition containing, as active ingredient, 7-azaindolin-2-one derivative or pharmaceutically acceptable salt thereof” (LG CHEM, LTD., priority 2015, dated 2020).

Series [1] relates to PANC-1 (human pancreatic cancer cell line). Briefly: Cytotoxicity test by MTT assay, PANC-1. It is filed as cell-based. Conditions: for cytotoxicity at 30 µM: read-out: Cell viability (% inhibition). Here is the method:
(§1) A cytotoxicity test was measured by MTT assay. Each cell line was cultured in a 96-well plate at a density of 1×10^4 cells/well. […] MTT (3-(4,5-dimethylthiazol-2-yl)-2,5-diphenyltetrazolium bromide) solution (5 mg/mL) was added to each well and reacted for 4 hours in an incubator. […] After reacting in an incubator for 30 minutes, the formation of formazan was quantified using a microplate reader at an absorbance of 540 nm. […] At this time, sunitinib was used as a control group. […] The human cancer cell lines used herein are MCF-7 (breast cancer), MDA-MB-231 (breast cancer), HT-29 (colon cancer), DU145 (prostate cancer), U937 (myeloid leukemia), A549 (lung cancer), PANC-1 (pancreatic cancer) and MIA PaCa-2 (pancreatic cancer).

In series [2] the test system is MCF-7 (human breast cancer cell line). Briefly: Cytotoxicity test by MTT assay, MCF-7. It is filed as cell-based. Conditions: Homo sapiens; for cytotoxicity at 30 µM: read-out: Cell viability (% inhibition); for IC50: MCF-7, 48 h. The procedure: as §1
Another series has as its system HT-29 (colon cancer). Briefly: Cytotoxicity test by MTT assay, HT-29. It is filed as cell-based, human. The conditions noted are these: for IC50: Homo sapiens, HT-29, 48 h. Here is the method:
(§2) A cytotoxicity test was measured by MTT assay. Each cell line was cultured in a 96-well plate at a density of 1×10^4 cells/well. After 24 hours, the culture medium containing 1% FBS (fetal bovine serum) was treated and reacted with compounds or solutions of compounds for 48 hours. MTT (3-(4,5-dimethylthiazol-2-yl)-2,5-diphenyltetrazolium bromide) solution (5 mg/mL) was added to each well and reacted for 4 hours in an incubator. […] After reacting in an incubator for 30 minutes, the formation of formazan was quantified using a microplate reader at an absorbance of 540 nm. […] The human cancer cell lines used herein are MCF-7 (breast cancer), MDA-MB-231 (breast cancer), HT-29 (colon cancer), DU145 (prostate cancer), U937 (myeloid leukemia), A549 (lung cancer), PANC-1 (pancreatic cancer) and MIA PaCa-2 (pancreatic cancer).

Series [3] can be described thus: Cytotoxicity test by MTT assay, HEK293 normal cell line. The series is classed as cell-based. Conditions: human, HEK293 cells (normal cell line). Here is the method: (§3) A cytotoxicity test was measured by MTT assay. Each cell line was cultured in a 96-well plate at a density of 1×10^4 cells/well. After 24 hours, the culture medium containing 1% FBS (fetal bovine serum) was treated and reacted with compounds or solutions of compounds for 48 hours. MTT (3-(4,5-dimethylthiazol-2-yl)-2,5-diphenyltetrazolium bromide) solution (5 mg/mL) was added to each well and reacted for 4 hours in an incubator. […] After reacting in an incubator for 30 minutes, the formation of formazan was quantified using a microplate reader at an absorbance of 540 nm.

A further series concerns A549 (lung cancer). As to the kind of experiment: Cytotoxicity test by MTT assay, A549. Conditions: for IC50: Homo sapiens, A549, 48 h. The series is classed as cell-based, human. Here is the method:
as §2

In series [4] the test system is MDA-MB-231 (breast cancer). As to the kind of experiment: Cytotoxicity test by MTT assay, MDA-MB-231. It is filed as cell-based, human. The conditions noted are these: for IC50: Homo sapiens, MBA-MB-231, 48 h. Here is the method:
as §2

Another series relates to DU145 (prostate cancer). As to the kind of experiment: Cytotoxicity test by MTT assay, DU145. The series is classed as cell-based, human. The conditions noted are these: DU-145; for IC50: Homo sapiens, DU145, 48 h. The procedure:
as §2

A further series concerns U937 (myeloid leukemia). Briefly: Cytotoxicity test by MTT assay, U937. The series is classed as cell-based, human. The conditions noted are these: for IC50: Homo sapiens, U-937, U937, 48 h. Here is the method: as §2
The nature of series [5]: Cytotoxicity test by MTT assay, CHO-K1 normal cell line. The series is classed as cell-based. Conditions: Chinese hamster, CHO-K1 cells (normal cell line). Here is the method: as §3
The mark [6] stands for this setting: Homo sapiens, PANC-1, 30 μM, 48 h.

SMILES strings stand for the structures. Like-named read-outs stand apart in the source and are kept apart here. Bounds are passed on as bounds.

As for `COc1cc(/C=C2\C(=O)Nc3nc(C)c(O)c(C)c32)cc(OC)c1OC` [Compound I-16, (Z)-5-Hydroxy-4,6-dimethyl-3-(3,4,5-trimethoxybenzylidene)-1H-pyrrolo[2,3-b]pyridin-2(3H)-one], the cytotoxicity at 30 µM in series [1] (setting [6]) is 40.6%; in series [2] (MCF7, MCF-7, 30 μM, 48 h), 41.2%.
Take `Cc1nc2c(c(C)c1O)/C(=C/c1ccc3ccccc3c1)C(=O)N2` [Compound I-20, (Z)-5-Hydroxy-4,6-dimethyl-3-(naphthalen-2-ylmethylene)-1H-pyrrolo[2,3-b]pyridin-2(3H)-one]: the cytotoxicity at 30 µM came to 28.9% in [1] (setting [6]) and 30.5% in series [2] (MCF7, MCF-7, 30 μM, 48 h).
Take `Cc1nc2c(c(C)c1O)/C(=C/c1ccccn1)C(=O)N2` [Compound I-21, (Z)-5-Hydroxy-4,6-dimethyl-3-(pyridin-2-ylmethylene)-1H-pyrrolo[2,3-b]pyridin-2(3H)-one]: the cytotoxicity at 30 µM was determined as 29.2% in series [1] (setting [6]) and 28.1% in series [2] (MCF7, MCF-7, 30 μM, 48 h).
For the compound `Cc1nc2c(c(C)c1O)/C(=C/c1ccc3ccccc3n1)C(=O)N2` [Compound I-24, (Z)-5-Hydroxy-4,6-dimethyl-3-(quinolin-2-ylmethylene)-1H-pyrrolo[2,3-b]pyridin-2(3H)-one], the “cytotoxicity compared with the reference drug sunitinib” value (in the series on HT-29 (colon cancer) (HT-29); in the series on A549 (lung cancer) (A-549); in series [4]; with DU145 (prostate cancer); in the series on U937 (myeloid leukemia) (U937)) was “greater than or equal to that of the reference drug sunitinib” in each case. Also, the IC50 is 4.57 µM in the series on HT-29 (colon cancer); 4.2 µM in the series on A549 (lung cancer); 2.81 µM in [4]; 1.07 µM in the series on DU145 (prostate cancer); 6.67 µM in the series with U937 (myeloid leukemia). The compound further displayed an IC50 at 48 h in [3] of 46.8 µM.
In the case of `Cc1nc2c(c(C)c1O)/C(=C/c1cccc3[nH]ccc13)C(=O)N2` [Compound I-25, (Z)-3-((1H-Indol-4-yl)methylene)-5-hydroxy-4,6-dimethyl-1H-pyrrolo[2,3-b]pyridin-2(3H)-one], the cytotoxicity at 30 µM was 32.3% in series [1] (setting [6]) and 14.5% in series [2] (MCF7, MCF-7, 30 μM, 48 h).
On to `Cc1nc2c(c(C)c1O)/C(=C/c1c[nH]c3ccccc13)C(=O)N2` [Compound I-26, (Z)-3-((1H-Indol-3-yl)methylene)-5-hydroxy-4,6-dimethyl-1H-pyrrolo[2,3-b]pyridin-2(3H)-one], for which the cytotoxicity at 30 µM came out at 17.1% in [1] (setting [6]) and 2.4% in [2] (MCF7, MCF-7, 30 μM, 48 h).
For `Cc1nc2c(c(C)c1O)/C(=C/c1ccco1)C(=O)N2` [Compound I-27, (Z)-3-(Furan-2-ylmethylene)-5-hydroxy-4,6-dimethyl-1H-pyrrolo[2,3-b]pyridin-2(3H)-one], the cytotoxicity at 30 µM in [1] (setting [6]) turned out to be 16.4%; in series [2] (MCF7, MCF-7, 30 μM, 48 h), 31.5%.
Regarding `Cc1nc2c(c(C)c1O)/C(=C/c1cccs1)C(=O)N2` [Compound I-29, (Z)-5-Hydroxy-4,6-dimethyl-3-(thiophen-2-ylmethylene)-1H-pyrrolo[2,3-b]pyridin-2(3H)-one], the cytotoxicity at 30 µM in [1] (setting [6]) came out at 42.2%; in series [2] (MCF7, MCF-7, 30 μM, 48 h), 57.8%.
Regarding `Cc1ccsc1/C=C1\C(=O)Nc2nc(C)c(O)c(C)c21` [Compound I-30, (Z)-5-Hydroxy-4,6-dimethyl-3-((3-methylthiophen-2-yl)methylene)-1H-pyrrolo[2,3-b]pyridin-2(3H)-one], the cytotoxicity at 30 µM in series [1] (setting [6]) came to 47.2%; in series [2] (MCF7, MCF-7, 30 μM, 48 h), 59%.
The corresponding values for `Cc1nc2c(c(C)c1O)/C(=C/c1ncc[nH]1)C(=O)N2` [Compound I-33, (Z)-3-((1H-Imidazol-2-yl)methylene)-5-hydroxy-4,6-dimethyl-1H-pyrrolo[2,3-b]pyridin-2(3H)-one] are 7.2% and 2.6%.
For `Cc1nc2c(c(C)c1O)/C(=C/c1c[nH]cn1)C(=O)N2` [Compound I-34, (Z)-3-((1H-Imidazol-4-yl)methylene)-5-hydroxy-4,6-dimethyl-1H-pyrrolo[2,3-b]pyridin-2(3H)-one], the cytotoxicity at 30 µM is 4.5% in [1] (Homo sapiens, PANC-1, 48 h) and 4.1% in [2] (MCF7, 48 h).
Take `Cc1nc2c(c(C)c1O)/C(=C/c1nccs1)C(=O)N2` [Compound I-35, (Z)-5-Hydroxy-4,6-dimethyl-3-(thiazol-2-ylmethylene)-1H-pyrrolo[2,3-b]pyridin-2(3H)-one]: the cytotoxicity at 30 µM worked out at 9% in [1] (setting [6]) and 5.6% in series [2] (MCF7, MCF-7, 30 μM, 48 h).
Regarding `Cc1cc(C)c(/C=C2\C(=O)Nc3nc(C)c(O)c(C)c32)[nH]1` [Compound I-36, (Z)-3-((3,5-Dimethyl-1H-pyrrol-2-yl)methylene)-5-hydroxy-4,6-dimethyl-1H-pyrrolo[2,3-b]pyridin-2(3H)-one], the IC50 at 48 h in [5] was 50.1 µM; in series [3], above 90 µM. In addition, the cytotoxicity at 30 µM in series [1] (setting [6]) is 44.7%; in series [2] (MCF7, MCF-7, 30 μM, 48 h), 47.3%. For the same compound, the IC50 in the series with HT-29 (colon cancer) came to 16.6 µM; in series [2] (MCF7) it was 31.6 µM; with A549 (lung cancer) it was 13.9 µM; in [4], 10.2 µM; in the series with U937 (myeloid leukemia) it was 33.9 µM.
Regarding `Cc1nc2c(c(C)c1O)/C(=C/c1[nH]c(C)c(C(=O)O)c1C)C(=O)N2` [Compound I-37, (Z)-5-((5-Hydroxy-4,6-dimethyl-2-oxo-1H-pyrrolo[2,3-b]pyridin-3(2H)-ylidene)methyl)-2,4-dimethyl-1H-pyrrole-3-carboxylic acid], the IC50 at 48 h in series [5] worked out at 33.1 µM; in series [3], 38 µM. The cytotoxicity at 30 µM was 55.8% in [1] (setting [6]) and 60.4% in series [2] (MCF7, MCF-7, 30 μM, 48 h). Moreover, the IC50 in the series with HT-29 (colon cancer) stood at 26.2 µM; in series [2] (MCF7), 14.8 µM; in the series on A549 (lung cancer) it was 19.9 µM; in series [4] it was 19.5 µM; in the series with U937 (myeloid leukemia) it was 14.8 µM.
On to `Cc1nc2c(c(C)c1O)/C(=C/c1[nH]c(C)c(C(=O)N3CCOCC3)c1C)C(=O)N2` [Compound I-46, (Z)-3-((3,5-Dimethyl-4-(morpholine-4-carbonyl)-1H-pyrrol-2-yl)methylene)-5-hydroxy-4,6-dimethyl-1H-pyrrolo[2,3-b]pyridin-2(3H)-one], for which the IC50 at 48 h in [5] and in [3] was above 90 µM each time. For the same compound, the IC50 in [1] (Homo sapiens, PANC-1, 48 h) amounted to 11.5 µM; in the series with HT-29 (colon cancer), 57.5 µM; in [2] (MCF7) it was 12.6 µM; with A549 (lung cancer) it was 30.1 µM; in series [4], 14.5 µM; with DU145 (prostate cancer) it was 22.9 µM. In addition, the cytotoxicity at 30 µM is 71.1% in series [1] (setting [6]) and 71.2% in series [2] (MCF7, MCF-7, 30 μM, 48 h). The “cytotoxicity compared with the reference drug sunitinib” value in series [1] (PANC-1) is “greater than or equal to that of the reference drug sunitinib”.
Take `COc1cccc2c1C(=O)c1c(O)c3c(c(O)c1C2=O)C[C@@](O)(C(=O)CO)C[C@@H]3O[C@H]1C[C@H](N)[C@H](O)[C@H](C)O1` [Doxorubicin, reference compound]: the results for the IC50 at 48 h in [5] and in [3] were 12.1 µM and 0.32 µM, respectively.
